Experimental data published in ChEMBL document CHEMBL1201862, “PubChem BioAssay data set” (2004).
Calls of active or inactive are those of the source.

Columns and labels:
[1] = molecular target: T1, Carboxy-terminal domain RNA polymerase II polypeptide A small phosphatase 1 (Homo sapiens, UniProt Q9GZU7); assay: CTDSP1 inhibitors, concentration-response, biochemical, absorbance readout, ultra-high-throughput screen actives (AID 540297); assay type: functional
T1 sequence (Q9GZU7 whole entry): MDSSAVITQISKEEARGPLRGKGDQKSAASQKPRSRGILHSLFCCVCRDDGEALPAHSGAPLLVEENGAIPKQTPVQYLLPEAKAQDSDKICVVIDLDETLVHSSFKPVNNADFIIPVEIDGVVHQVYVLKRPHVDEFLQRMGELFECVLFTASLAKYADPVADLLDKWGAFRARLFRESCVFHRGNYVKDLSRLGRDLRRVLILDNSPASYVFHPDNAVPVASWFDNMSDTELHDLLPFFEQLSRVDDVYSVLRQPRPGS

[2] = molecular target: DNA dC->dU-editing enzyme APOBEC-3G (Homo sapiens, UniProt Q9HC16); assay type: functional;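 further: Dose-response counterscreen measuring inhibition of APOBEC3G DNA deaminase activity, run while confirming APOBEC3A inhibitors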
[3] = molecular target: DNA dC->dU-editing enzyme APOBEC-3A (Homo sapiens, UniProt P31941); assay: Dose Response confirmation of small molecule APOBEC3A DNA Deaminase Inhibitors via a fluorescence-based single-stranded DNA deaminase assay. [Related pubchem assays (depositor defined):AID493011, AID493024]; assay type: functional
[4] = molecular target: T2, Heat shock factor protein 1 (Mus musculus, UniProt P38532); assay: decrease of HSF1-responsive luciferase luminescence – cell-based, NIH3T3, dose retest, confirmation (AID 2382); assay type: functional;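 further: NIH3T3 fibroblasts with HSF1-driven luciferase reporter stressed by proteasome inhibitor MG132; luminescence from HSF1-driven luciferase expression after 8 hours of MG132 stress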
T2 sequence (P38532 whole entry): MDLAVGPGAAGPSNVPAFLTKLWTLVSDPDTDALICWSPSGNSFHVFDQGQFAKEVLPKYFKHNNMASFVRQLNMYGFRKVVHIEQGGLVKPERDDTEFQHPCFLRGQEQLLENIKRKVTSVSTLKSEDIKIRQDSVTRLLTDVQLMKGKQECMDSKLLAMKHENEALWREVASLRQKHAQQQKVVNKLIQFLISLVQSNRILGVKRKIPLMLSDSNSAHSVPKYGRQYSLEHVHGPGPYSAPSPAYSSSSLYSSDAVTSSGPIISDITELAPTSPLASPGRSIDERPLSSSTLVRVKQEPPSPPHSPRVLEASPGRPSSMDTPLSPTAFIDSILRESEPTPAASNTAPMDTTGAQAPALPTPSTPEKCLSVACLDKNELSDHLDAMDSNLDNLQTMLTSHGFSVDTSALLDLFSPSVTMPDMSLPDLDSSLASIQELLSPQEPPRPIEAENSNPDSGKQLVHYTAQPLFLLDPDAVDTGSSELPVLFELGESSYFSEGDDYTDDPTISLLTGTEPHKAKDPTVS

Leucine aminopeptidase = molecular target: T3, Leucine aminopeptidase (Plasmodium falciparum 3D7, UniProt Q8IL11); assay: P. falciparum M17LAP inhibitors, primary screen, biochemical, fluorogenic H-Leu-NHMec substrate, 1536-well (AID 1619); assay type: functional
T3 sequence (Q8IL11 whole entry): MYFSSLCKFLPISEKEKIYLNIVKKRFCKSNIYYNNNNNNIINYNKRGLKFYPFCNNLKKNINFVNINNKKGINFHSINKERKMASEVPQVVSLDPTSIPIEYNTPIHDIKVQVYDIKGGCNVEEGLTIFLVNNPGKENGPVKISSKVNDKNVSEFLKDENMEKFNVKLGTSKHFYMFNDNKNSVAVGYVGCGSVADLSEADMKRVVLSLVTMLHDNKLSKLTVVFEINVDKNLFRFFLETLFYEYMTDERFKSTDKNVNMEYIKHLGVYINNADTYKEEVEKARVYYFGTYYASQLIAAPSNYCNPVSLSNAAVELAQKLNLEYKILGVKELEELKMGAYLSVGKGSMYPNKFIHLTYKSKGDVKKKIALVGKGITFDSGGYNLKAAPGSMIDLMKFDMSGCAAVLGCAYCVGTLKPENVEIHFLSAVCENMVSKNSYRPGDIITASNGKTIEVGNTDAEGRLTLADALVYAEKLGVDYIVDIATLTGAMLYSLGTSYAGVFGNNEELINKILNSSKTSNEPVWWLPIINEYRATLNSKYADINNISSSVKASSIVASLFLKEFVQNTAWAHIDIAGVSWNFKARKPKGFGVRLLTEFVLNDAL

[5] = molecular target: T4, Short transient receptor potential channel 4 (Mus musculus, UniProt Q9QUQ5); assay: calcium entry via TRPC4 opening agents – cell-based, HEK293 TRPC4/mu-opioid, Fluo-4 calcium, dose response (AID 434937); assay type: functional
T4 sequence (Q9QUQ5 whole entry): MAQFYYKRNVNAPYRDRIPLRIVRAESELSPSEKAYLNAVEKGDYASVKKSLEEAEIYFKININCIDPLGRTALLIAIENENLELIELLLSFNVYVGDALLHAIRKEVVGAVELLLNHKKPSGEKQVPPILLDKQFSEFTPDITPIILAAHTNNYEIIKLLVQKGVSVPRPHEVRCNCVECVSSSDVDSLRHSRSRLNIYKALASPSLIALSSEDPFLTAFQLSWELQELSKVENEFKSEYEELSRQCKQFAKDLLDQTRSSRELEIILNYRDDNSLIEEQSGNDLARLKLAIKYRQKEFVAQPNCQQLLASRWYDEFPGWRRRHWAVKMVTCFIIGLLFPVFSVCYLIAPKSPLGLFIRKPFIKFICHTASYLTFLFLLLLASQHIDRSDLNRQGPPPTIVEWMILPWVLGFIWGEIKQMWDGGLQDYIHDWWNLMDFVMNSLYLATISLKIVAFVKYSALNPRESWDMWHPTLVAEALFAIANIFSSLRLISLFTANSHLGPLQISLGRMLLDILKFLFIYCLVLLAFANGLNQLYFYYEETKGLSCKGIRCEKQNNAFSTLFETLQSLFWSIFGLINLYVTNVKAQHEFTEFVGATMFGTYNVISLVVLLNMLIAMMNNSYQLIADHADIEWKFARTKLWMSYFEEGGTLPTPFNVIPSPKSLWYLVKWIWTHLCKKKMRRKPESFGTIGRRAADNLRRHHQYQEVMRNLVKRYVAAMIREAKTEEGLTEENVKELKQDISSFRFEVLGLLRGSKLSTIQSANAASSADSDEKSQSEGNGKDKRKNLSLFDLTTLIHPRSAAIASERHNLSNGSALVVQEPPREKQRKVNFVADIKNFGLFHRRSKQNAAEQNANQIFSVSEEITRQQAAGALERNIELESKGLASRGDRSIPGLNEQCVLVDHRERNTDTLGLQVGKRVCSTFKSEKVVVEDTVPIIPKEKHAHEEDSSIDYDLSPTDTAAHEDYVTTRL

[6] = molecular target: Peroxisome proliferator-activated receptor gamma/Nuclear receptor coactivator 2 (Homo sapiens, UniProt P37231); assay: (§1) TR-FRET dose response biochemical High Throughput Screening assay for agonists of the steroid receptor coactivator 2 (SRC-2) recruitment by the peroxisome proliferator-activated receptor gamma (PPAR gamma): non-selective agonists. [Related pubchem assays: 1297, 1032 ]; assay type: functional
[7] = molecular target: Peroxisome proliferator-activated receptor gamma/Nuclear receptor coactivator 3 (Homo sapiens, UniProt P37231); assay: as §1, with “3 (SRC-3)” for “2 (SRC-2)”, “1301 (Confirmation screen.), 1048 (Primary screen.)]” for “1297, 1032 ]”; assay type: functional
[8] = molecular target: Peroxisome proliferator-activated receptor gamma/Nuclear receptor coactivator 1 (Homo sapiens, UniProt P37231); assay: as §1, with “1 (SRC-1)” for “2 (SRC-2)”, “assays (depositor defined):AID1300, AID1808, AID504735, AID631]” for “assays: 1297, 1032 ]”; assay type: protein assay
[9] = molecular target: T5, Replicative DNA helicase DnaB (Mycobacterium tuberculosis, UniProt P9WMR3); assay: DnaB intein splicing inhibitors, dose response, biochemical, cell-free fluorescence (AID 449749); assay type: functional
T5 sequence (P9WMR3 whole entry): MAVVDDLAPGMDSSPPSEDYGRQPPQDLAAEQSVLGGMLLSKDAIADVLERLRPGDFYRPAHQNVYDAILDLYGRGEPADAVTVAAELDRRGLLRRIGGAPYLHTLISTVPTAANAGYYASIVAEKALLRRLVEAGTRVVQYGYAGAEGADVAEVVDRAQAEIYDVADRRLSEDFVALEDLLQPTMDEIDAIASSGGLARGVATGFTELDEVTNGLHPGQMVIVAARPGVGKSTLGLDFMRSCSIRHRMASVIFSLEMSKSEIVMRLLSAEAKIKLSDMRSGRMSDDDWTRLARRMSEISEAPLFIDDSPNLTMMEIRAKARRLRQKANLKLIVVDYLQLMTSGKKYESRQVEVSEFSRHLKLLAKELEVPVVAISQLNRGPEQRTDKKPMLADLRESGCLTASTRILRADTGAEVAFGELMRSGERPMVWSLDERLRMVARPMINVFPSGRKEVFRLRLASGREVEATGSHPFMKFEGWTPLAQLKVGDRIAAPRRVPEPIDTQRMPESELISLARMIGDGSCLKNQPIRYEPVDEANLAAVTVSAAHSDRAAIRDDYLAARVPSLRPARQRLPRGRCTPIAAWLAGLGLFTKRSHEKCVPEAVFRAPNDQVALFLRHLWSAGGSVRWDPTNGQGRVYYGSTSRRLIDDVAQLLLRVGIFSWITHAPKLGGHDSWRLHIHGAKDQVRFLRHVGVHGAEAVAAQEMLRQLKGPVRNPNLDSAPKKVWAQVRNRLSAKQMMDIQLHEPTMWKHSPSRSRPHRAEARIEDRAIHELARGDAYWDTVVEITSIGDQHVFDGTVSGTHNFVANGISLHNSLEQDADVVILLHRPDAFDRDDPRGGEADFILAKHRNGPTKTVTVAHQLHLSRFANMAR

[10] = A Cell Based Secondary Assay To Explore Cytotoxicity of Compounds that Sensitize Mycobacterium Tuberculosis to Beta-Lactam Antibiotics.; assay type: functional
Protein RecA = molecular target: T6, Protein RecA (Mycobacterium tuberculosis, UniProt P9WHJ3); assay: Fluorescence Cell-Free Homogeneous Dose Retest to Identify Inhibitors of RecA-Intein Splicing Activity. [Related pubchem assays (depositor defined):AID2097, AID2223, AID489010, AID492950]; assay type: functional
T6 sequence (P9WHJ3 whole entry): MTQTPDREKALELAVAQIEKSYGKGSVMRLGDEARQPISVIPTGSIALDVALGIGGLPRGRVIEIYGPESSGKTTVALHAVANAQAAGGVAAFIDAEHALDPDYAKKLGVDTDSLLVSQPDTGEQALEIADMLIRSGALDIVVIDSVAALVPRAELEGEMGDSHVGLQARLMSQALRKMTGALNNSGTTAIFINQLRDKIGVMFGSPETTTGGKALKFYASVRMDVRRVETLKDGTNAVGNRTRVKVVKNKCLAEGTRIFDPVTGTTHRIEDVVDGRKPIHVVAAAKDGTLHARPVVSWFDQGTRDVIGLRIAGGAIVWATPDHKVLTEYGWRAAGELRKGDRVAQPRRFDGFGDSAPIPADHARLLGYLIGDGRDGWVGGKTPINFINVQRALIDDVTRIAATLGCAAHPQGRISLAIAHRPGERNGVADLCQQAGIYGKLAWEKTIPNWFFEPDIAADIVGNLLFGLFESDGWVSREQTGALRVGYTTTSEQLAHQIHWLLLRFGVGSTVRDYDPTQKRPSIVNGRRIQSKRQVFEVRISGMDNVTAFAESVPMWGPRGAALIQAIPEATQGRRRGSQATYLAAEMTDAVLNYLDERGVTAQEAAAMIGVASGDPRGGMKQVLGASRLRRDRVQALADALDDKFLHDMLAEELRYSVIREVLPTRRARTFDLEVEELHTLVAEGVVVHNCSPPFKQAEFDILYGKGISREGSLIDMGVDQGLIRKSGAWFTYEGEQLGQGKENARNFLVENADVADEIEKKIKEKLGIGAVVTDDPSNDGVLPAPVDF

[11] = viability of PTEN-deleted HCT116 cells – cell-based, HCT116 PTEN knockout, dose response (AID 1047); assay type: functional;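 further: HCT116 colon tumor cells with PTEN knocked out; cells exposed to compound for 60 hours before readout; potency for loss of cell viability measured by luminescence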
[12] = viability of HCT116 lacking mutant beta-catenin – cell-based, human colon tumor, dose response (AID 1045); assay type: functional;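 further: HCT116 colon tumor cells with beta catenin knocked out; cells exposed to compound for 60 hours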

DNA dC->dU-editing enzyme APOBEC-3A, sequence (P31941 whole entry): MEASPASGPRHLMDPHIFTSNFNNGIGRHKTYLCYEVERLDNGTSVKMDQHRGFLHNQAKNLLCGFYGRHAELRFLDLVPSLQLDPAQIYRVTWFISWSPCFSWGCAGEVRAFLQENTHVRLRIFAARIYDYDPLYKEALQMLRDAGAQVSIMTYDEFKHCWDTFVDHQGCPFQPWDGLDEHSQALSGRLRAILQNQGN
DNA dC->dU-editing enzyme APOBEC-3G, sequence (Q9HC16 whole entry): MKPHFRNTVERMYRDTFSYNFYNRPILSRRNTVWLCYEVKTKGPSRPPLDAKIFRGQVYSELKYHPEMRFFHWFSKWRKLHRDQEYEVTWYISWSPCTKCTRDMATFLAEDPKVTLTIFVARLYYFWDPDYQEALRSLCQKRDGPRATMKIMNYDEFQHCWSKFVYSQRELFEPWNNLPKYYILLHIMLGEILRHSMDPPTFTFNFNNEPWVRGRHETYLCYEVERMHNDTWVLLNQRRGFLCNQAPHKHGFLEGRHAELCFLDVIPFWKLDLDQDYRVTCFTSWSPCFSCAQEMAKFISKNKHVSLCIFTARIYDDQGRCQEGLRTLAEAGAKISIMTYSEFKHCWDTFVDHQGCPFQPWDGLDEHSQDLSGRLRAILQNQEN
Peroxisome proliferator-activated receptor gamma/Nuclear receptor coactivator 3, sequence (P37231 whole entry): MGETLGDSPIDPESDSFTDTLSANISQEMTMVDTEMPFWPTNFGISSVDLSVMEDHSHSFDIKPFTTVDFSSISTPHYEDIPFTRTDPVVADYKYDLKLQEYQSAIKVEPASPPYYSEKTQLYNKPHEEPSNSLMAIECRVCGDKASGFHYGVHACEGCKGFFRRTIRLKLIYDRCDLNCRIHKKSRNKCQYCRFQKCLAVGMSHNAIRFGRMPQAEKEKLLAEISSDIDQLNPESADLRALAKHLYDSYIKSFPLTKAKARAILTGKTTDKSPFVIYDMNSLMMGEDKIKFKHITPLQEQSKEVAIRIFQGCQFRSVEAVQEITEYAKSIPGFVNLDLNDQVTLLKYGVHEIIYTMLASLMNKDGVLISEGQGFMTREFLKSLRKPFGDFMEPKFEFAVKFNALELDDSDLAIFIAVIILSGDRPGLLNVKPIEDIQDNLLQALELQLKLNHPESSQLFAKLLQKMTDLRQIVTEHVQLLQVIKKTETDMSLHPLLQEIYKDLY
Peroxisome proliferator-activated receptor gamma/Nuclear receptor coactivator 3, sequence (Q9Y6Q9 whole entry, further chain): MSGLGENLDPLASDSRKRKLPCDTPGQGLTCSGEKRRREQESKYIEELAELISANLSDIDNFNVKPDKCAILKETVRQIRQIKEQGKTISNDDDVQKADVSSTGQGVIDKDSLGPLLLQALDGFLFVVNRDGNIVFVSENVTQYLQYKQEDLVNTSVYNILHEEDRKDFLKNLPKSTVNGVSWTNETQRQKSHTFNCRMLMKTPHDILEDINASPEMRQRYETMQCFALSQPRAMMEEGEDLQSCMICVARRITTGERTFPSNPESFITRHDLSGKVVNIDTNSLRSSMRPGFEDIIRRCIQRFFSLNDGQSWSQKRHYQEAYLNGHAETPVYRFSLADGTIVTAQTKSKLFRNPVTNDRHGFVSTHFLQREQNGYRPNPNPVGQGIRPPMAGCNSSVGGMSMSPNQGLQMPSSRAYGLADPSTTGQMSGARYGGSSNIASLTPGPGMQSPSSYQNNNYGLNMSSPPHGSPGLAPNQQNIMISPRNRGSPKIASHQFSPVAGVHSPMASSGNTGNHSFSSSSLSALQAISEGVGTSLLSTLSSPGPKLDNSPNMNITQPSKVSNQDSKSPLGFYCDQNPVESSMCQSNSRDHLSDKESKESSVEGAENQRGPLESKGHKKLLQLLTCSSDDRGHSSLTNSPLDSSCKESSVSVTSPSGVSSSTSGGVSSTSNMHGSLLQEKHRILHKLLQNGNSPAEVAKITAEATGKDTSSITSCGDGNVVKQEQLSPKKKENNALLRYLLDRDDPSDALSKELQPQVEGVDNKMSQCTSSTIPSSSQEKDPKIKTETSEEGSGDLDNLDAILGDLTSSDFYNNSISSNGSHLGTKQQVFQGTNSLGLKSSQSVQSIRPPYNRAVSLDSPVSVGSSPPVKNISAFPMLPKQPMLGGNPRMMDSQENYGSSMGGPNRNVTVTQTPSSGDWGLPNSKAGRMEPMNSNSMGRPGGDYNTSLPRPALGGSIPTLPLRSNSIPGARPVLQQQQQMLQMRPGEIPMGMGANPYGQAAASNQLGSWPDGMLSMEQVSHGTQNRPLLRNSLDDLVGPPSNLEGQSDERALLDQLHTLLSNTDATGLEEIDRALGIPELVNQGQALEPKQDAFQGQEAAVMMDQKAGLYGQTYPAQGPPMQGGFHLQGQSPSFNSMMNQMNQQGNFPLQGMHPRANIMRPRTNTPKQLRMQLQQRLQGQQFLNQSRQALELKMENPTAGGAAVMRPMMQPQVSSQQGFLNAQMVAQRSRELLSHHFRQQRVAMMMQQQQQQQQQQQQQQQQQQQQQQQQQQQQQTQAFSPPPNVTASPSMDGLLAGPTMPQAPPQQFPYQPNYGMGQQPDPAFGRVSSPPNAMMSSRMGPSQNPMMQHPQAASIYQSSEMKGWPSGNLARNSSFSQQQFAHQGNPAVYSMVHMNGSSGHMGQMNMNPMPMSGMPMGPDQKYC
Peroxisome proliferator-activated receptor gamma/Nuclear receptor coactivator 2, sequence (P37231 whole entry): as the sequence (P37231 whole entry) above
Peroxisome proliferator-activated receptor gamma/Nuclear receptor coactivator 2, sequence (Q15596 whole entry, further chain): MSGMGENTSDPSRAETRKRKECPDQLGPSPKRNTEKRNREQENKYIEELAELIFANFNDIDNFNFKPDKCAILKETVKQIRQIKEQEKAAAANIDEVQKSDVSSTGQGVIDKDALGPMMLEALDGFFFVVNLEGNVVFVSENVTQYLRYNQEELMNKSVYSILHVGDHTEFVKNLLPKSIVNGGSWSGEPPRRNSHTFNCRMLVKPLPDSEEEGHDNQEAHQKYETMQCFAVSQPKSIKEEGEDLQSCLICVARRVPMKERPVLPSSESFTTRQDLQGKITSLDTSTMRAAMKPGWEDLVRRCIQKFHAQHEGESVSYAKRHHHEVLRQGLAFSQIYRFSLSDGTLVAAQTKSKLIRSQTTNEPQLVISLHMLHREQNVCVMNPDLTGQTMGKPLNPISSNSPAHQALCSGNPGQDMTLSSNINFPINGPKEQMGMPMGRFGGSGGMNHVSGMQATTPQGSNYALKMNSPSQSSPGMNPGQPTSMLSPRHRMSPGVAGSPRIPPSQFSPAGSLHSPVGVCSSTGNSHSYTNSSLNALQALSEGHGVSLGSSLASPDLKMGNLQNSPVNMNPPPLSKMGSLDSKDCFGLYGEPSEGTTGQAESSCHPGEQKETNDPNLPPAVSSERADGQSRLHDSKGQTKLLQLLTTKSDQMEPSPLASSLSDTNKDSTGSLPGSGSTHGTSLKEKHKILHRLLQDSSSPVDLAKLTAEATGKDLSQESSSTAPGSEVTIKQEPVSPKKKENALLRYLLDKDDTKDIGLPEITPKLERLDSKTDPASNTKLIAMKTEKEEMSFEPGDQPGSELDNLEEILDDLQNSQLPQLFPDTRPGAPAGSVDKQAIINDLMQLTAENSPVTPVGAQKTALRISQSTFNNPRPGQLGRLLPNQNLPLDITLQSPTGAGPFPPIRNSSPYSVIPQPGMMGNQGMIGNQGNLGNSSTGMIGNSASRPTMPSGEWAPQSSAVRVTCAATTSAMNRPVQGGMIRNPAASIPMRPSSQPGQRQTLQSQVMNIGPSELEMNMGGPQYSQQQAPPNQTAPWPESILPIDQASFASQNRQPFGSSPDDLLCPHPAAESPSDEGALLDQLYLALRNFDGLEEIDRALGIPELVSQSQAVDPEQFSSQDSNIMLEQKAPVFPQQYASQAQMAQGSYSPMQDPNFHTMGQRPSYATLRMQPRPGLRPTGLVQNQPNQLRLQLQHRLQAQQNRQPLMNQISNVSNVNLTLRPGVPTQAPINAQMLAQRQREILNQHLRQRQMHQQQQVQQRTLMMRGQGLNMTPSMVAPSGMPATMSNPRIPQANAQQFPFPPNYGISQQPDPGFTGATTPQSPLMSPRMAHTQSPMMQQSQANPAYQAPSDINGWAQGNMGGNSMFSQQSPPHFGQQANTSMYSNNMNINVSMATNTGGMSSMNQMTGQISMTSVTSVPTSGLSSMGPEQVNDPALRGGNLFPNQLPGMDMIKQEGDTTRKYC

SMILES | IC50 [2] | IC50 [3] | EC50 [5] | EC50 [6] | EC50 [7] | EC50 [8] | other results
O=C(CSc1nc2sccc2c(=O)[nH]1)N1CCN(c2ccccc2)CC1 | 9.27 µM (active) | 11.5 µM (active) | – | – | – | – | IC50 [1]: 10.7 µM (active)
Cc1cccc(C(=O)NC(=S)NNC(=O)c2ccccc2Cl)c1 | – | – | 1.68 µM (active) | – | – | – | EC50 [4]: > 195 µM (not active); IC50 (Leucine aminopeptidase): 58 µM (active)
COC(=O)c1c(N=C(S)Nc2ccc(CC(=O)O)cc2)sc(C)c1C | – | – | – | 9.39 µM (active) | > 79.4 µM (not active) | 13.3 µM (inactive) | –
CCc1noc(C)c1C(=O)Nc1cc(S(=O)(=O)N2CCOCC2)ccc1N1CCN(CC)CC1 | 5.53 µM (active) | 3.46 µM (active) | – | – | – | – | –
CCn1c(=O)cc(SCC(=O)Nc2cccc(C)n2)c2ccccc21 | – | – | – | > 79.4 µM (not active) | > 79.4 µM (not active) | > 79.4 µM (inactive) | –
COc1ccc(NC(=O)COc2ccc(/C=C/c3cc[n+](C)cc3)cc2OC)cc1 | 3.92 µM (active) | 3.69 µM (active) | – | – | – | – | –
C=CCn1c(=S)[nH]c2scc(-c3cccs3)c2c1=O | – | – | – | 5.27 µM (active) | > 79.4 µM (not active) | 4.03 µM (active) | –
Cc1sc2ncnc(NCC(c3ccccc3)N(C)C)c2c1C (stereo unspecified) | – | – | 0.237 µM (active) | – | – | – | –
O=S(=O)(Cc1ccccc1)c1cnc2ccccc2n1 | – | – | – | – | – | – | AC50 [9]: > 380 µM (inactive); CC50 [10]: 34 µM (active); EC50 (Protein RecA): 18.3 µM (active); EC50 [11]: 14.1 µM (active); EC50 [12]: 12.2 µM (active)
Cc1nc(NCC(c2ccccc2)N(C)C)c2c(C)c(C)sc2n1 (stereo unspecified) | – | – | 0.335 µM (active) | – | – | – | –
